Measurements reported in patent US6410533B1, “Antibacterial compounds” (Genzyme Corporation, priority 2000, dated 2002).
Values after ≈ are worked out from the molar mass of the structure shown. Read-outs that look alike come from different tables or passages of the source.

Assays:
[1] = system: methicillin-resistant Staphylococcus aureus (ATCC 33591); test: In vivo mouse intraperitoneal infection, mortality and % survivors over 7 days; settings: MRSA ATCC 33591 i.p., ICR mice; for In Vivo, double dose (% of mice rescued): 1 and 5 h post inoculation; for In Vivo, single dose (% of mice rescued): single dose 1 h post inoculation
In short: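 Survival and mortality were scored for 7 days after i.p. challenge of 20 g male ICR mice (n=10) with an LD90-100 inoculum (2-3×10^7 CFU/mouse) of MRSA ATCC 33591 in 5% mucin. Treatment was subcutaneous in 1% cremophore EL/saline, either once at 1 h or twice at 1 h and 5 h.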

[2] = system: Staphylococcus aureus bacteria (ATCC 9604 SV); test: Minimal inhibitory concentration (MIC), broth microdilution; assay type: cell-based; settings: 24 h at 37° C.
In short: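 MIC: broth microdilution per NCCLS in Mueller-Hinton broth; overnight culture adjusted to 0.05 McFarland and diluted twenty-fold into compound-containing broth. IC50: inoculum at 0.1 McFarland diluted two-fold into TB broth with compound, 3–5 h at 37° C. Turbidity at 550 nm; IC50 is the concentration giving 50% growth inhibition.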

[3] = system: Staphylococcus aureus bacteria (ATCC 9604 SV); test: IC50 determination, growth inhibition by turbidity at 550 nm; assay type: cell-based; settings: Staphylococcus aureus ATCC 9604 SV, turbidity at 550 nm after 3-5 h at 37° C.
Procedure: Minimal inhibitory concentrations (MICs) for Staphylococcus aureus bacteria (ATCC 9604 SV) were determined by broth microdilution methodology following National Committee for Clinical Laboratory Standards. In the MIC determinations, the compounds were incorporated into Mueller-Hinton broth (Becton Dickinson Microbiology systems, Cockeyville, Md.) at a series of concentrations. After the test organism was grown overnight in TB broth, the broths were adjusted to the turbidity equivalent to 0.05 McFarland standard. The suspensions were diluted twenty-fold into the broth containing the compounds. […] In the IC50 determination, the method was modified to allow the rapid growth of the organisms. The inoculum suspensions were adjusted to 0.1 McFarland standard and then diluted two-fold into the wells containing TB broth and the compounds. After three to five hours incubation at 37° C., the turbidity was measured at 550 nm and inhibitory activity was defined as the concentration of antimicrobial agent that inhibits 50% growth of the organism in the microdilution wells.

[4] = ATCC9604, Staphylococcus aureus ATCC 9604 SV, read-out: MIC
[5] = Staphylococcus aureus ATCC 9604 SV

Compound | In Vivo, double dose (% of mice rescued) ([1]; 2 × 2 mg/kg s.c.) [% @ 2 × 2 mg/kg] | In Vivo, double dose (% of mice rescued) ([1]; 2 × 20 mg/kg s.c.) [% @ 2 × 20 mg/kg] | MIC [2, 4] [µg/mL] | IC50 ([3]; ATCC9604) [µM] | MIC [2, 5] [µg/mL] | IC50 [3] [µM] | In Vivo, single dose (% of mice rescued) ([1]; 2 mg/kg s.c.) [% @ 2 mg/kg] | In Vivo, single dose (% of mice rescued) ([1]; 20 mg/kg s.c.) [% @ 20 mg/kg] | In Vivo, single dose (% of mice rescued) ([1]; 40 mg/kg s.c.) [% @ 40 mg/kg] | In Vivo, single dose (% of mice rescued) ([1]; 80 mg/kg s.c.) [% @ 80 mg/kg] | In Vivo, single dose (% of mice rescued) ([1]; 160 mg/kg s.c.) [% @ 160 mg/kg]
O=C1CC(c2ccccc2)=NN1c1cc(Cl)cc(Cl)c1 [Compound 1, 2-(3,5-Dichloro-phenyl)-5-phenyl-2,4-dihydro-pyrazol-3-one] | 0 | 25 | 0.122 (≈ 0.4 µM) | 0.54 | – | – | – | – | – | – | –
O=C1CC(c2ccccc2)=NN1c1ccc(Cl)c(Cl)c1 [Compound 2] | 0 | 0 | – | – | 1.91 (≈ 6.26 µM) | 0.449 | – | – | – | – | –
COc1ccc(C=C2C(=O)N(c3cc(Cl)cc(Cl)c3)N=C2c2ccccc2)cc1 [Compound 3, 2-(3,5-Dichloro-phenyl)-4-(4-methoxy-benzylidene)-5-phenyl-2,4-dihydro-pyrazol-3-one] | 25 | 25 | 1.3 (≈ 3.07 µM) | 0.985 | – | – | – | – | – | – | –
CC(C)(C)c1cc(NC(=O)Nc2cc(C(F)(F)F)cc(C(F)(F)F)c2)n(-c2ccc(C(F)(F)F)cc2)n1 [Compound 72] | – | – | – | – | 0.808 (≈ 1.5 µM) | 0.058 | 0 | 0 | – | – | –
O=C(Nc1cc(C(F)(F)F)cc(C(F)(F)F)c1)Nc1cc(-c2ccccc2)nn1-c1ccc(C(F)(F)F)cc1 [Compound 76, 1-(3,5-Bis-trifluoromethyl-phenyl)-3-[5-phenyl-2-(4-trifluoromethyl-phenyl)-2H-pyrazol-3-yl]-urea] | – | – | < 0.838 | 0.054 | – | – | 0 | 0 | – | – | –
O=C(Nc1cc(Cl)cc(Cl)c1)Nc1cc(-c2ccccc2)nn1-c1ccc(C(F)(F)F)cc1 [Compound 77] | – | – | – | – | 12.3 (≈ 25 µM) | 0.081 | 0 | 12.5 | – | – | –
O=C(Nc1cc(C(F)(F)F)cc(C(F)(F)F)c1)Nc1cc(-c2cccs2)nn1-c1ccc(C(F)(F)F)cc1 [Compound 83] | – | – | – | – | 0.847 (≈ 1.5 µM) | 0.071 | 0 | 25 | – | – | –
O=C(Nc1cc(Cl)cc(Cl)c1)Nc1cc(-c2cccs2)nn1-c1ccc(C(F)(F)F)cc1 [Compound 84] | – | – | – | – | 6.22 (≈ 12.5 µM) | 0.134 | 0 | 0 | – | – | –
O=C(Nc1cc(C(F)(F)F)cc(C(F)(F)F)c1)Nc1cc(-c2cccnc2)nn1-c1ccc(C(F)(F)F)cc1 [Compound 86] | – | – | – | – | 1.68 (≈ 3 µM) | 0.205 | 0 | 0 | – | – | –
O=C(Nc1cc(C(F)(F)F)cc(C(F)(F)F)c1)Nc1cc(-c2ccncc2)nn1-c1ccc(C(F)(F)F)cc1 [Compound 87] | 0 | 17 | – | – | 1.68 (≈ 3 µM) | 0.214 | 25 | 25 | – | – | –
O=C(Nc1cc(C(F)(F)F)cc(C(F)(F)F)c1)Nc1cc(CN2CCOCC2)nn1-c1ccc(C(F)(F)F)cc1 [Compound 89] | – | – | – | – | >29.1 | 0.216 | 0 | 0 | – | – | –
O=C(Nc1cc(Cl)cc(Cl)c1)Nc1cc(-c2ccccc2)nn1-c1ccc(Cl)cc1 [Compound 91] | – | – | – | – | >22.9 | 0.148 | 0 | 0 | – | – | –
O=C(Nc1cc(C(F)(F)F)cc(C(F)(F)F)c1)Nc1ccnn1-c1ccc(Br)cc1 [Compound 92, 1-(3,5-Bis-trifluoromethyl-phenyl)-3-[2-(4-bromo-phenyl)-2H-pyrazol-3-yl]-urea] | – | – | < 0.74 | 0.209 | – | – | 0 | 0 | – | – | –
O=C(Nc1cc(Cl)cc(Cl)c1)Nc1ccnn1-c1ccc(Br)cc1 [Compound 93] | – | – | – | – | <0.639 | 0.138 | 0 | 25 | – | – | –
CCOC(=O)c1cnn(-c2ccc(Br)cc2)c1NC(=O)Nc1cc(C(F)(F)F)cc(C(F)(F)F)c1 [Compound 94] | – | – | – | – | <0.848 | 0.261 | 0 | 0 | – | – | –
Cc1cc(NC(=O)Nc2cc(C(F)(F)F)cc(C(F)(F)F)c2)n(-c2ccc(Br)cc2)n1 [Compound 95, 1-(3,5-Bis-trifluoromethyl-phenyl)-3-[2-(4-bromo-phenyl)-5-methyl-2H-pyrazol-3-yl]-urea] | – | – | < 0.761 | 0.268 | – | – | 25 | 25 | – | – | –
Cc1cc(NC(=O)Nc2cc(Cl)cc(Cl)c2)n(-c2ccc(Br)cc2)n1 [Compound 96] | – | – | – | – | >22.0 | 0.967 | 0 | 25 | – | – | –
CCOC(=O)c1cc(NC(=O)Nc2cc(C(F)(F)F)cc(C(F)(F)F)c2)n(-c2ccc(Br)cc2)n1 [Compound 98] | 0 | 33 | – | – | >14.1 | 3.1 | – | – | – | – | –
O=C(Nc1cc(C(F)(F)F)cc(C(F)(F)F)c1)Nc1cc(CO)nn1-c1ccc(Br)cc1 [Compound 99, 1-(3,5-Bis-trifluoromethyl-phenyl)-3-[2-(4-bromo-phenyl)-5-hydroxymethyl-2H-pyrazol-3-yl]-urea] | 33 | 33 | 6.54 (≈ 12.5 µM) | 4.24 | – | – | – | – | – | – | –
CC(C)(C)c1cc(NC(=O)Nc2cc(Cl)cc(Cl)c2)n(-c2ccc(Br)cc2)n1 [Compound 100] | – | – | – | – | <0.723 | 0.132 | 0 | 0 | – | – | –
CC(C)(C)c1cc(NC(=O)Nc2cc(C(F)(F)F)cc(C(F)(F)F)c2)n(-c2ccc(Br)cc2)n1 [Compound 101] | – | – | – | – | <0.824 | 0.143 | 0 | 0 | – | – | –
COCCN(CCOC)Cc1cc(NC(=O)Nc2cc(Cl)cc(Cl)c2)n(-c2ccc(Br)cc2)n1 [Compound 102] | – | – | – | – | 28.6 (≈ 50.1 µM) | 3.52 | 0 | 25 | – | – | –
COCCN(CCOC)Cc1cc(NC(=O)Nc2cc(C(F)(F)F)cc(C(F)(F)F)c2)n(-c2ccc(Br)cc2)n1 [Compound 103] | 0 | 33 | – | – | 16.0 (≈ 25.1 µM) | 1.56 | 25 | 25 | – | – | –
O=C(Nc1cc(C(F)(F)F)cc(C(F)(F)F)c1)Nc1cc(CN(CCO)CCO)nn1-c1ccc(Br)cc1 [Compound 104] | 17 | 17 | – | – | 15.3 (≈ 25.1 µM) | 6.8 | – | – | – | – | –
O=C(Nc1cc(Cl)cc(Cl)c1)Nc1cc(-c2ccccc2)nn1-c1ccc(Br)cc1 [Compound 107] | 0 | 17 | – | – | 6.28 (≈ 12.5 µM) | 0.121 | 25 | 12.5 | 10 | 10 | 5
